Drawing on patent US11578061B2, “Inhibitors of LRRK2 kinase” (Halia Therapeutics, Inc., priority 2021, dated 2023), this text covers IC50 for ten molecules.

For this assay, the target named is recombinant human LRRK2 (catalytic domain only [amino acids 970-2527], GST-tagged) (Homo sapiens (Human), UniProt Q5S007). Kind of assay: LRRK2 Enzymatic Assay. The assay is classed as biochemical. The conditions noted are these: LRRKtide substrate, [32P]-ATP. The method in brief: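 Radiometric P81 filter-binding read-out of [32P]-ATP transfer to LRRKtide (20 μM) by 30 nM GST-LRRK2 970-2527, 2 h at room temperature after 20 min compound preincubation (10 μM–0.5 nM, 1% DMSO). IC50 derived from % remaining activity versus DMSO.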
Sequence of recombinant human LRRK2 (catalytic domain only [amino acids 970-2527], GST-tagged) (Q5S007 970-2527): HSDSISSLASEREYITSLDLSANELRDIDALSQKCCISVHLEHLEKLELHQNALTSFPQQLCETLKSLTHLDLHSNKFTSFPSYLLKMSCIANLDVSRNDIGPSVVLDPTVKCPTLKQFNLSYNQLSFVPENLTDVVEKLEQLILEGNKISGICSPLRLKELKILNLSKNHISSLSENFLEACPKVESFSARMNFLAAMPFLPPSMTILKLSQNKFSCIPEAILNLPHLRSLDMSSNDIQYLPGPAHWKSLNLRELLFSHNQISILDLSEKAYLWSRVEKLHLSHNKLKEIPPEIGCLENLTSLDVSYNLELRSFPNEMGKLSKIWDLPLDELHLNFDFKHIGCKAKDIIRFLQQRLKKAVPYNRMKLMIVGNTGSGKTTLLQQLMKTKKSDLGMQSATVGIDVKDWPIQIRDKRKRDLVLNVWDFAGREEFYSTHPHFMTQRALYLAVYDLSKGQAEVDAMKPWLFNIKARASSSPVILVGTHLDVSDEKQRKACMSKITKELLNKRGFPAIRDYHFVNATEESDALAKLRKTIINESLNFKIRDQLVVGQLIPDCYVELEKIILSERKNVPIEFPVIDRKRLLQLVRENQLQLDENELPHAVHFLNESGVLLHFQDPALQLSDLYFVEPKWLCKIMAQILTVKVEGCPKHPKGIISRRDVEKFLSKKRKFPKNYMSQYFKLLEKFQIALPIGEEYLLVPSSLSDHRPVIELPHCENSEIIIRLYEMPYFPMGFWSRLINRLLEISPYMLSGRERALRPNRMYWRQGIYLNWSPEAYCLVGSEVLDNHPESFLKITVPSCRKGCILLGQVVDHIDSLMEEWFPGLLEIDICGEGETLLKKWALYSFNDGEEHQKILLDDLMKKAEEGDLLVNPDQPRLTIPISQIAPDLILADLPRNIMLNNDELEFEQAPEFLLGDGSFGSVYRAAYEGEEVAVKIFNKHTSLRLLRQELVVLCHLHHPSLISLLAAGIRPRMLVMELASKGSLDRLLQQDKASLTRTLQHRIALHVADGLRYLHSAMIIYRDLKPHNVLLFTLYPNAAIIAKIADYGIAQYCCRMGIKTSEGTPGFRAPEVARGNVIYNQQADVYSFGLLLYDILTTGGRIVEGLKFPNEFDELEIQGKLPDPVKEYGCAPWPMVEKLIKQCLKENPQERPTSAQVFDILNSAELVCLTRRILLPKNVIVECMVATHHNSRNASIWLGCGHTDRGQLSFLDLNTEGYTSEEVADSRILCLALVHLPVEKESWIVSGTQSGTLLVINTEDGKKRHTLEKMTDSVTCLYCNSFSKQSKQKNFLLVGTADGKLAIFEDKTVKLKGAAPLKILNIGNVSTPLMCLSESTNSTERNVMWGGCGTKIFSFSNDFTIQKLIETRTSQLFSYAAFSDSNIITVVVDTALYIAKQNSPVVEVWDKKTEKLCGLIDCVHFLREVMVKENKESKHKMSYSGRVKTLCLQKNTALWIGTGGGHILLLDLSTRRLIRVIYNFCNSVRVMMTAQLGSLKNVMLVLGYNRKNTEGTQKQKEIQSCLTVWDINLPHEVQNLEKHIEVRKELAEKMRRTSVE

A value given as a limit tells only on which side of the number the result lay.

On to `NC1CCCC(COc2ccnc(Nc3ccc(N4CCOCC4)cc3)n2)C1` (stereo not shown) [Example 11, 4-((3-aminocyclohexyl)methoxy)-N-(4-morpholinophenyl) pyrimidin-2-amine], for which the IC50 is 50 to 200 nM.
Turning to `Cc1nn(C(C)(C)C#N)cc1Nc1nccc(OCC2(F)CCN(C)CC2)n1` [Example 60, 2-(4-((4-((4-fluoro-1-methylpiperidin-4-yl)methoxy)pyrimidin-2-yl)amino)-3-methyl-1H-pyrazol-1-yl)-2-methylpropanenitrile], the 50% inhibitory concentration (IC50) is over 400 nM.
Consider `CN[C@H]1CC[C@@H](COc2nc(Nc3cnn(C4CC(C#N)C4)c3C)ncc2Cl)C1` (stereo partly drawn) [Example 52, 3-(4-((5-chloro-4-(((1R,3S)-3-(methylamino)cyclo-pentyl)methoxy)py-rimidin-2-yl)amino)-5-methyl-1H-pyrazol-1-yl)cyclobutane-1-carbonitrile], for which the IC50 is under 50 nM.
For the molecule `Cn1cc(Nc2ncc(F)c(OC[C@H]3CC[C@H](O)CC3)n2)c(Cl)n1` [Example 237, (1R,4R)-4-(((2-((3-chloro-1-methyl-1H-pyrazol-4-yl)amino)-5-fluoropyrimidin-4-yl)oxy)methyl)cyclohexan-1-ol], the IC50 is 50 to 200 nM.
With `Cc1nn(C2CC(C#N)C2)cc1Nc1ncc(Cl)c(OCC2CCN(C)CC2)n1` (stereo not shown) [Example 59, 3-(4-((5-chloro-4-((1-methylpiperidin-4-yl)methoxy)pyrimidin-2-yl)amino)-3-methyl-1H-pyrazol-1-yl)cyclobutane-1-carbonitrile], the IC50 is 200 to 400 nM.
On to `CNC[C@H]1CC[C@H](COc2nc(Nc3ccc(N4CCOCC4)cc3)ncc2Cl)CC1` [Example 49, 5-chloro-4-(((1R,4R)-4-((methylamino)methyl)cyclohexyl)methoxy)-N-(4-morpholinophenyl)py-rimidin-2-amine], for which the half-maximal inhibitory concentration (IC50) was under 50 nM.
`CN[C@H]1CC[C@H](COc2nc(Nc3ccc(N4CCOCC4)cc3)ncc2OC)CC1` [Example 35, 5-methoxy-4-(((1R,4R)-4-(methylamino)cyclo-hexyl)methoxy)-N-(4-morpholinophenyl) pyrimidin-2-amine]: the IC50 is under 50 nM.
Regarding `Cc1nn(C(C)(C)C#N)cc1Nc1ncc(F)c(OC[C@H]2CC[C@H](NC(=O)C(F)(F)F)CC2)n1` [Example 212, N-((1R,4R)-4-(((2-((1-(2-cyanopropan-2-yl)-3-methyl-1H-pyrazol-4-yl)amino)-5-fluoro-pyrimidin-4-yl)oxy)methyl)cyclohexyl)-2,2,2-trifluoro-acetamide], the IC50 was 50 to 200 nM.
On to `Cc1nn(C(C)(C)C#N)cc1Nc1ncc(F)c(OCC2CCNCC2F)n1` (single isomer, unassigned) [Example 170, 2-(4-((5-fluoro-4-((3-fluoropiperidin-4-yl)methoxy)pyrimidin-2-yl)amino)-3-methyl-1H-pyrazol-1-yl)-2-methylpropanenitrile], for which the concentration for half-maximal inhibition (IC50) fell in the range of 50 to 200 nM.
`C[C@@H]1CN(c2ccc(Nc3ncc(F)c(OCC4(F)CCNCC4)n3)cc2)C[C@H](C)O1` [Example 23, N-(4-((2R,6S)-2,6-dimethylmorpholino)phenyl)-5-fluoro-4-((4-fluoropiperidin-4-yl)methoxy) pyrimidin-2-amine]: the 50% inhibitory concentration (IC50) is under 50 nM.

One may read the IC50 as the concentration that gives 50% inhibition.
